What was measured:
Type in all cases: in vivo
Galium aparine [1] = assay: Herbicidal activity, preemergence test; conditions: pre; sprayed onto soil, 800 g of active material per hectare; evaluated 3 weeks after treatment
Method in brief: (§1)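 Spray dose 800 g a.i./ha in 900 L/ha; acetone stock with 0.4% Triton X-155, water-diluted. Pre: sown loam soil, read at 3 wk. Post: seedling plants, read at 2 wk. Visual 0-9 rating vs untreated.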

Helianthus annuus [2] = assay: Herbicidal activity, preemergence test; conditions: pre; sprayed onto soil, 800 g of active material per hectare; evaluated 3 weeks after treatment
Method in brief: as §1

Triticum aestivum [3] = assay: Herbicidal activity, preemergence test; conditions: pre; sprayed onto soil, 800 g of active material per hectare; evaluated 3 weeks after treatment
Method in brief: as §1

Setaria viridis [4] = assay: Herbicidal activity, preemergence test; conditions: pre; sprayed onto soil, 800 g of active material per hectare; evaluated 3 weeks after treatment
Method in brief: as §1

Viola arvensis [5] = assay: Herbicidal activity, preemergence test; conditions: pre; sprayed onto soil, 800 g of active material per hectare; evaluated 3 weeks after treatment
Method in brief: as §1

Ambrosia artemisifolia [6] = assay: Herbicidal activity, preemergence test; conditions: pre; sprayed onto soil, 800 g of active material per hectare; evaluated 3 weeks after treatment
Method in brief: as §1

Zea mays [7] = assay: Herbicidal activity, preemergence test; conditions: pre; sprayed onto soil, 800 g of active material per hectare; evaluated 3 weeks after treatment
Method in brief: as §1

Gossypium hirsutum [8] = assay: Herbicidal activity, preemergence test; conditions: pre; sprayed onto soil, 800 g of active material per hectare; evaluated 3 weeks after treatment
Method in brief: as §1

Glycine max [9] = assay: Herbicidal activity, preemergence test; conditions: pre; sprayed onto soil, 800 g of active material per hectare; evaluated 3 weeks after treatment
Method in brief: as §1

Echinochloa crus-galli [10] = assay: Herbicidal activity, preemergence test; conditions: pre; sprayed onto soil, 800 g of active material per hectare; evaluated 3 weeks after treatment
Method in brief: as §1

Ipomoea hederacea [11] = assay: Herbicidal activity, preemergence test; conditions: pre; sprayed onto soil, 800 g of active material per hectare; evaluated 3 weeks after treatment
Method in brief: as §1

Lamium purpureum [12] = assay: Herbicidal activity, preemergence test; conditions: pre; sprayed onto soil, 800 g of active material per hectare; evaluated 3 weeks after treatment
Method in brief: as §1

Alopecurus myosuroides [13] = assay: Herbicidal activity, preemergence test; conditions: pre; sprayed onto soil, 800 g of active material per hectare; evaluated 3 weeks after treatment
Method in brief: as §1

Veronica persica [14] = assay: Herbicidal activity, preemergence test; conditions: pre; sprayed onto soil, 800 g of active material per hectare; evaluated 3 weeks after treatment
Method in brief: as §1

Amaranthus retroflexus [15] = assay: Herbicidal activity, preemergence test; conditions: pre; sprayed onto soil, 800 g of active material per hectare; evaluated 3 weeks after treatment
Method in brief: as §1

Hordeum vulgare [16] = assay: Herbicidal activity, preemergence test; conditions: pre; sprayed onto soil, 800 g of active material per hectare; evaluated 3 weeks after treatment
Method in brief: as §1

Abutilon theophrasti [17] = assay: Herbicidal activity, preemergence test; conditions: pre; sprayed onto soil, 800 g of active material per hectare; evaluated 3 weeks after treatment
Method in brief: as §1

Stellaria media [18] = assay: Herbicidal activity, preemergence test; conditions: pre; sprayed onto soil, 800 g of active material per hectare; evaluated 3 weeks after treatment
Method in brief: as §1

Galium aparine [19] = assay: Herbicidal activity, postemergence test; conditions: post; sprayed onto seedling plants, 800 g of active material per hectare; evaluated 2 weeks after treatment
Method in brief: as §1

Helianthus annuus [20] = assay: Herbicidal activity, postemergence test; conditions: post; sprayed onto seedling plants, 800 g of active material per hectare; evaluated 2 weeks after treatment
Method in brief: as §1

Triticum aestivum [21] = assay: Herbicidal activity, postemergence test; conditions: post; sprayed onto seedling plants, 800 g of active material per hectare; evaluated 2 weeks after treatment
Method in brief: as §1

Setaria viridis [22] = assay: Herbicidal activity, postemergence test; conditions: post; sprayed onto seedling plants, 800 g of active material per hectare; evaluated 2 weeks after treatment
Method in brief: as §1

Viola arvensis [23] = assay: Herbicidal activity, postemergence test; conditions: post; sprayed onto seedling plants, 800 g of active material per hectare; evaluated 2 weeks after treatment
Method in brief: as §1

Ambrosia artemisifolia [24] = assay: Herbicidal activity, postemergence test; conditions: post; sprayed onto seedling plants, 800 g of active material per hectare; evaluated 2 weeks after treatment
Method in brief: as §1

Zea mays [25] = assay: Herbicidal activity, postemergence test; conditions: post; sprayed onto seedling plants, 800 g of active material per hectare; evaluated 2 weeks after treatment
Method in brief: as §1

Gossypium hirsutum [26] = assay: Herbicidal activity, postemergence test; conditions: post; sprayed onto seedling plants, 800 g of active material per hectare; evaluated 2 weeks after treatment
Method in brief: as §1

Glycine max [27] = assay: Herbicidal activity, postemergence test; conditions: post; sprayed onto seedling plants, 800 g of active material per hectare; evaluated 2 weeks after treatment
Method in brief: as §1

Echinochloa crus-galli [28] = assay: Herbicidal activity, postemergence test; conditions: post; sprayed onto seedling plants, 800 g of active material per hectare; evaluated 2 weeks after treatment
Method in brief: as §1

Ipomoea hederacea [29] = assay: Herbicidal activity, postemergence test; conditions: post; sprayed onto seedling plants, 800 g of active material per hectare; evaluated 2 weeks after treatment
Method in brief: as §1

Lamium purpureum [30] = assay: Herbicidal activity, postemergence test; conditions: post; sprayed onto seedling plants, 800 g of active material per hectare; evaluated 2 weeks after treatment
Method in brief: as §1

Alopecurus myosuroides [31] = assay: Herbicidal activity, postemergence test; conditions: post; sprayed onto seedling plants, 800 g of active material per hectare; evaluated 2 weeks after treatment
Method in brief: as §1

Veronica persica [32] = assay: Herbicidal activity, postemergence test; conditions: post; sprayed onto seedling plants, 800 g of active material per hectare; evaluated 2 weeks after treatment
Method in brief: as §1

Amaranthus retroflexus [33] = assay: Herbicidal activity, postemergence test; conditions: post; sprayed onto seedling plants, 800 g of active material per hectare; evaluated 2 weeks after treatment
Method in brief: as §1

Hordeum vulgare [34] = assay: Herbicidal activity, postemergence test; conditions: post; sprayed onto seedling plants, 800 g of active material per hectare; evaluated 2 weeks after treatment
Method in brief: as §1

Abutilon theophrasti [35] = assay: Herbicidal activity, postemergence test; conditions: post; sprayed onto seedling plants, 800 g of active material per hectare; evaluated 2 weeks after treatment
Method in brief: as §1

Stellaria media [36] = assay: Herbicidal activity, postemergence test; conditions: post; sprayed onto seedling plants, 800 g of active material per hectare; evaluated 2 weeks after treatment
Method in brief: as §1

Row | Structure (SMILES) | GALAP control rating (0-9) (Galium aparine [1]) | HELAN control rating (0-9) (Helianthus annuus [2]) | TRZAW control rating (0-9) (Triticum aestivum [3]) | SETVI control rating (0-9) (Setaria viridis [4]) | VIOAR control rating (0-9) (Viola arvensis [5]) | AMBEL control rating (0-9) (Ambrosia artemisifolia [6]) | ZEAMX control rating (0-9) (Zea mays [7]) | GOSHI control rating (0-9) (Gossypium hirsutum [8]) | GLXMA control rating (0-9) (Glycine max [9]) | ECHCG control rating (0-9) (Echinochloa crus-galli [10]) | IPOHE control rating (0-9) (Ipomoea hederacea [11]) | LAMPU control rating (0-9) (Lamium purpureum [12]) | ALOMY control rating (0-9) (Alopecurus myosuroides [13]) | VERPE control rating (0-9) (Veronica persica [14]) | AMARE control rating (0-9) (Amaranthus retroflexus [15]) | HORVW control rating (0-9) (Hordeum vulgare [16]) | ABUTH control rating (0-9) (Abutilon theophrasti [17]) | GALAP control rating (0-9) (Galium aparine [19]) | HELAN control rating (0-9) (Helianthus annuus [20]) | TRZAW control rating (0-9) (Triticum aestivum [21]) | further results
1 | CC(NC(=O)c1nnc(C(C)(C)C)o1)c1cccs1 (racemic) [Example 5] | 0 (no effect) | 0 (no effect) | 0 (no effect) | 8 (approaching complete kill) | 6 (herbicidal effect) | 1 (trace effect) | 0 (no effect) | 0 (no effect) | 0 (no effect) | 6 (herbicidal effect) | 0 (no effect) | 2 (slight effect) | 4 (injury) | 8 (approaching complete kill) | 5 (definite injury) | 0 (no effect) | 7 (good herbicidal effect) | 5 (definite injury) | 8 (approaching complete kill) | 4 (injury) | STEME control rating (0-9) (Stellaria media [18]): 8 (approaching complete kill); SETVI control rating (0-9) (Setaria viridis [22]): 6 (herbicidal effect); VIOAR control rating (0-9) (Viola arvensis [23]): 7 (good herbicidal effect); AMBEL control rating (0-9) (Ambrosia artemisifolia [24]): 9 (complete kill); ZEAMX control rating (0-9) (Zea mays [25]): 4 (injury); GOSHI control rating (0-9) (Gossypium hirsutum [26]): 9 (complete kill); GLXMA control rating (0-9) (Glycine max [27]): 8 (approaching complete kill); ECHCG control rating (0-9) (Echinochloa crus-galli [28]): 4 (injury); IPOHE control rating (0-9) (Ipomoea hederacea [29]): 6 (herbicidal effect); LAMPU control rating (0-9) (Lamium purpureum [30]): 1 (trace effect); ALOMY control rating (0-9) (Alopecurus myosuroides [31]): 3 (moderate effect); VERPE control rating (0-9) (Veronica persica [32]): 9 (complete kill); AMARE control rating (0-9) (Amaranthus retroflexus [33]): 5 (definite injury); HORVW control rating (0-9) (Hordeum vulgare [34]): 4 (injury); ABUTH control rating (0-9) (Abutilon theophrasti [35]): 8 (approaching complete kill); STEME control rating (0-9) (Stellaria media [36]): 8 (approaching complete kill)
2 | CC(NC(=O)c1nnc(-c2ccccc2)o1)c1cccs1 (racemic) [Example 1] | 0 (no effect) | 0 (no effect) | 0 (no effect) | 4 (injury) | 6 (herbicidal effect) | 0 (no effect) | 0 (no effect) | 0 (no effect) | 0 (no effect) | 0 (no effect) | 5 (definite injury) | 7 (good herbicidal effect) | 0 (no effect) | 5 (definite injury) | 0 (no effect) | 0 (no effect) | 0 (no effect) | 6 (herbicidal effect) | 9 (complete kill) | 2 (slight effect) | SETVI control rating (0-9) (Setaria viridis [22]): 9 (complete kill); VIOAR control rating (0-9) (Viola arvensis [23]): 9 (complete kill); AMBEL control rating (0-9) (Ambrosia artemisifolia [24]): 8 (approaching complete kill); ZEAMX control rating (0-9) (Zea mays [25]): 3 (moderate effect); GOSHI control rating (0-9) (Gossypium hirsutum [26]): 9 (complete kill); GLXMA control rating (0-9) (Glycine max [27]): 8 (approaching complete kill); ECHCG control rating (0-9) (Echinochloa crus-galli [28]): 6 (herbicidal effect); IPOHE control rating (0-9) (Ipomoea hederacea [29]): 5 (definite injury); LAMPU control rating (0-9) (Lamium purpureum [30]): 4 (injury); ALOMY control rating (0-9) (Alopecurus myosuroides [31]): 2 (slight effect); VERPE control rating (0-9) (Veronica persica [32]): 9 (complete kill); AMARE control rating (0-9) (Amaranthus retroflexus [33]): 9 (complete kill); HORVW control rating (0-9) (Hordeum vulgare [34]): 5 (definite injury); ABUTH control rating (0-9) (Abutilon theophrasti [35]): 8 (approaching complete kill); STEME control rating (0-9) (Stellaria media [36]): 9 (complete kill)
3 | C[C@H](NC(=O)c1nnc(-c2ccccc2)o1)c1ccccc1 [Example 4] | 0 (no effect) | 0 (no effect) | 0 (no effect) | 4 (injury) | 6 (herbicidal effect) | 0 (no effect) | 1 (trace effect) | 0 (no effect) | 0 (no effect) | 4 (injury) | 0 (no effect) | 3 (moderate effect) | 0 (no effect) | 6 (herbicidal effect) | 8 (approaching complete kill) | 0 (no effect) | 1 (trace effect) | 8 (approaching complete kill) | 9 (complete kill) | 4 (injury) | STEME control rating (0-9) (Stellaria media [18]): 6 (herbicidal effect); SETVI control rating (0-9) (Setaria viridis [22]): 8 (approaching complete kill); VIOAR control rating (0-9) (Viola arvensis [23]): 7 (good herbicidal effect); AMBEL control rating (0-9) (Ambrosia artemisifolia [24]): 9 (complete kill); ZEAMX control rating (0-9) (Zea mays [25]): 3 (moderate effect); GOSHI control rating (0-9) (Gossypium hirsutum [26]): 9 (complete kill); GLXMA control rating (0-9) (Glycine max [27]): 8 (approaching complete kill); ECHCG control rating (0-9) (Echinochloa crus-galli [28]): 5 (definite injury); IPOHE control rating (0-9) (Ipomoea hederacea [29]): 9 (complete kill); LAMPU control rating (0-9) (Lamium purpureum [30]): 6 (herbicidal effect); ALOMY control rating (0-9) (Alopecurus myosuroides [31]): 4 (injury); VERPE control rating (0-9) (Veronica persica [32]): 9 (complete kill); AMARE control rating (0-9) (Amaranthus retroflexus [33]): 9 (complete kill); HORVW control rating (0-9) (Hordeum vulgare [34]): 5 (definite injury); ABUTH control rating (0-9) (Abutilon theophrasti [35]): 9 (complete kill); STEME control rating (0-9) (Stellaria media [36]): 9 (complete kill)

Reference: patent EP0726263A2, “Herbicidal (1,3,4)oxadiazoles and thiadiazoles” (American Cyanamid Company, priority 1995, dated 1996)
